Holding throughout (type): biochemical
For one experiment, the target named is Pim2 kinase (Homo sapiens (Human), UniProt Q9P1W9). The experiment in a line: Pim2 ATP depletion assay. The settings on record: 4 μM ATP, 10 μM BAD peptide, 5 nM PIM2. On the procedure:
(§1) The activity of PIM2 is measured using a luciferase-luciferin based ATP detection reagent to quantify ATP depletion resulting from kinase-catalyzed phosphoryl transfer to a peptide substrate. Compounds to be tested are dissolved in 100% DMSO and directly distributed into white 384-well plates at 0.5 piper well. […] After 15 minutes, 10 μl of 8 μM ATP in assay buffer is added. Final assay concentrations are 5 nM PIM2, 4 μM ATP, 10 μM BAD peptide and 2.5% DMSO. The reaction is performed until approximately 50% of the ATP is depleted, then stopped with the addition of 20 μl KinaseGlo Plus (Promega Corporation) solution. The stopped reaction is incubated for 10 minutes and the remaining ATP detected via luminescence on the Victor2 (Perkin Elmer).

A further experiment deals with Pim3 kinase (Homo sapiens (Human), UniProt Q86V86). The experiment in a line: Pim3 ATP depletion assay. The conditions noted are these: 40 μM ATP, 100 μM BAD peptide. As to the method: as §1, with “of PIM3” for “of PIM2”, “of 80” for “of 8”, “nM PIM1, 40” for “nM PIM2, 4”, “ATP, 100” for “ATP, 10”, “stopped by” for “stopped with”
In another experiment the target is Pim1 kinase (Homo sapiens (Human), UniProt P11309). The experiment in a line: Pim1 ATP depletion assay. The conditions noted are these: 20 μM ATP, 40 μM BAD peptide, 2.5 nM PIM1. As to the method: as §1, with “of PIM1” for “of PIM2”, “0.5 μl per” for “0.5 piper”, “of 40” for “of 8”, “are 2.5” for “are 5”, “nM PIM1, 20” for “nM PIM2, 4”, “ATP, 40” for “ATP, 10”
Pim1 kinase, sequence (P11309 whole entry): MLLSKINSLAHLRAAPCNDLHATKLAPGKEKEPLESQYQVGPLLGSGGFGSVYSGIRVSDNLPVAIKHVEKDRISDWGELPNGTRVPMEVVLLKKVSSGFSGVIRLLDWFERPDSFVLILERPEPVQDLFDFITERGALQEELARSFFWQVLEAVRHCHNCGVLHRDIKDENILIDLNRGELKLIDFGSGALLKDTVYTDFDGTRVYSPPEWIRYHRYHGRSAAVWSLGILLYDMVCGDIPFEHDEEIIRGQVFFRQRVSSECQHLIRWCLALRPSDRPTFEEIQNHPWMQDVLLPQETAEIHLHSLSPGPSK

Pim2 kinase, sequence (Q9P1W9 whole entry): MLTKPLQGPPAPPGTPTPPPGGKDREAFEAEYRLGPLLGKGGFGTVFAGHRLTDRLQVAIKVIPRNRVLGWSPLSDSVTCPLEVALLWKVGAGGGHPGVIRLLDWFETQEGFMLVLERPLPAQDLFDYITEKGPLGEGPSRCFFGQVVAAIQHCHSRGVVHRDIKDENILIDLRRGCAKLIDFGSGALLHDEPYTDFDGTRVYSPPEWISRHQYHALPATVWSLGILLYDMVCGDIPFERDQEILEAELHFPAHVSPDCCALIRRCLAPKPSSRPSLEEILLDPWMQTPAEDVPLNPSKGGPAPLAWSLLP

With `C[C@H]1C[C@@H](c2ccncc2NC(=O)c2csc(-c3c(F)cccc3F)n2)C[C@@H](N)[C@H]1F` (racemic) [Example 58, N-(4-((+/−)-3-amino-4-fluoro-5-methylcyclohexyl)pyridin-3-yl)-2-(2,6-difluorophenyl)thiazole-4-carboxamide], the IC50 on Pim2 kinase stood at 47 nM; against Pim3 kinase, 18 nM.

Turning to `COc1ccc(F)c(-c2nc(C(=O)Nc3cnccc3[C@@H]3C[C@H](C)C[C@H](N)C3)cs2)c1F` (stereo in doubt) [Example 52, 2-(2,6-Difluoro-3-methoxy-phenyl)-thiazole-4-carboxylic acid [4-(3-amino-5-methyl-cyclohexyl)-pyridin-3-yl]-amide], the IC50 was 4 nM on Pim2 kinase, 1 nM against Pim1 kinase and 2 nM against Pim3 kinase.

Consider `CCOc1ccc(F)c(-c2nc(C(=O)Nc3cnccc3[C@@H]3C[C@H](C)C[C@H](N)C3)cs2)c1F` (stereo in doubt) [Example 54, 2-(3-Ethoxy-2,6-difluoro-phenyl)-thiazole-4-carboxylic acid [4-(3-amino-5-methyl-cyclohexyl)-pyridin-3-yl]-amide], for which the IC50 on Pim2 kinase is 9 nM; against Pim1 kinase, 1 nM; against Pim3 kinase, 3 nM.

For `C[C@@H]1C[C@H](N)C[C@H](c2ccncc2NC(=O)c2csc(-c3c(F)ccc(F)c3F)n2)C1` (stereo in doubt) [Example 55, 2-(2,3,6-Trifluoro-phenyl)-thiazole-4-carboxylic acid [4-(3-amino-5-methyl-cyclohexyl)-pyridin-3-yl]-amide], the concentration for half-maximal inhibition (IC50) against Pim2 kinase amounted to 15 nM; against Pim1 kinase, 3 nM; at Pim3 kinase, 5 nM.

In the case of `C[C@@H]1C[C@H](N)C[C@H](c2ccncc2NC(=O)c2csc(-c3c(F)ccc(Cl)c3F)n2)C1` (stereo in doubt) [Example 56, 2-(3-Chloro-2,6-difluoro-phenyl)-thiazole-4-carboxylic acid [4-(3-amino-5-methyl-cyclohexyl)-pyridin-3-yl]-amide], the IC50 on Pim2 kinase worked out at 12 nM; at Pim1 kinase, 1 nM; against Pim3 kinase, 3 nM.

On to `C[C@@H]1C[C@H](N)C[C@H](c2ccncc2NC(=O)c2csc(-c3c(F)cc(O)cc3F)n2)C1` (stereo in doubt) [Example 57, 2-(2,6-Difluoro-4-hydroxy-phenyl)-thiazole-4-carboxylic acid [4-(3-amino-5-methyl-cyclohexyl)-pyridin-3-yl]-amide], for which the IC50 against Pim2 kinase worked out at 4 nM; on Pim1 kinase, 1 nM; at Pim3 kinase it was 2 nM.

As to `N[C@@H]1CN(c2ccncc2NC(=O)c2csc(-c3c(F)cccc3F)n2)CC[C@H]1F` [Example 3, N-(4-((3R,4R)-3-amino-4-fluoropiperidin-1-yl)pyridin-3-yl)-2-(2,6-difluorophenyl)thiazole-4-carboxamide], the figures for the IC50 against Pim2 kinase, on Pim1 kinase and against Pim3 kinase were 23 nM, 2 nM and 5 nM, respectively.

In the case of `N[C@H]1C[C@@H](O)CN(c2ccncc2NC(=O)c2csc(-c3c(F)cccc3F)n2)C1` [Example 5, N-(4-((3S,5R)-3-amino-5-hydroxypiperidin-1-yl)pyridin-3-yl)-2-(2,6-difluorophenyl)thiazole-4-carboxamide], the IC50 on Pim2 kinase is 77 nM; against Pim1 kinase, 15 nM; on Pim3 kinase, 13 nM.

For the compound `COC1CCN(c2ccncc2NC(=O)c2csc(-c3c(F)cccc3F)n2)CC1N` (centres unmarked) [Example 7, N-(4-(3-amino-4-methoxypiperidin-1-yl)pyridin-3-yl)-2-(2,6-difluorophenyl)thiazole-4-carboxamide], the IC50 at Pim2 kinase was found to be 243 nM; at Pim1 kinase it was 5 nM; at Pim3 kinase it was 18 nM.

In the case of `N[C@H]1C[C@H](O)CN(c2ccncc2NC(=O)c2csc(-c3c(F)cccc3F)n2)C1` [Example 9, N-(4-((3S,5S)-3-amino-5-hyydroxypiperidin-1-yl)pyridin-3-yl)-2-(2,6-difluorophenyl)thiazole-4-carboxamide], the IC50 against Pim2 kinase was 1500 nM; against Pim1 kinase, 69 nM; on Pim3 kinase it was 91 nM.

On to `N[C@H]1C[C@H](OC(=O)c2ccccc2)CN(c2ccncc2NC(=O)c2csc(-c3c(F)cccc3F)n2)C1` [Example 10, (3S,5S)-5-amino-1-(3-(2-(2,6-difluorophenyl)thiazole-4-carboxamido)pyridin-4-yl)piperidin-3-yl benzoate], for which the figures for the half-inhibitory concentration (IC50) against Pim2 kinase, against Pim1 kinase and against Pim3 kinase were 479 nM, 2220 nM and 322 nM, respectively.

`N[C@H]1CCCN(c2ccncc2NC(=O)c2csc(C3CCCCC3)n2)C1` [Example 12, (S)-N-(4-(3-aminopiperidin-1-yl)pyridin-3-yl)-2-cyclohexylthiazole-4-carboxamide]: the concentration for half-maximal inhibition (IC50) was 208 nM at Pim2 kinase, 57 nM against Pim1 kinase and 45 nM on Pim3 kinase.

On to `NC1CC(CO)CN(c2ccncc2NC(=O)c2csc(-c3c(F)cccc3F)n2)C1` (centres unmarked) [Example 13, N-(4-(3-amino-5-(hydroxymethyl)piperidin-1-yl)pyridin-3-yl)-2-(2,6-difluorophenyl)thiazole-4-carboxamide], for which the IC50 at Pim2 kinase turned out to be 58 nM; against Pim1 kinase, 14 nM; at Pim3 kinase, 24 nM.

Turning to `N[C@H]1C[C@H](F)CN(c2ccncc2NC(=O)c2csc(-c3c(F)cccc3F)n2)C1` [Example 17, N-(4-((3S,5S)-3-amino-5-fluoropiperidin-1-yl)pyridin-3-yl)-2-(2,6-difluorophenyl)thiazole-4-carboxamide], the IC50 is 70 nM against Pim2 kinase, 4 nM against Pim1 kinase and 8 nM against Pim3 kinase.

Turning to `NC1CN(c2ccncc2NC(=O)c2csc(-c3c(F)cccc3F)n2)CCC1Cl` (centres unmarked) [Example 18, N-(4-(3-amino-4-chloropiperidin-1-yl)pyridin-3-yl)-2-(2,6-difluorophenyl)thiazole-4-carboxamide], the half-inhibitory concentration (IC50) against Pim2 kinase stood at 54 nM; at Pim1 kinase it was 5 nM; against Pim3 kinase it was 12 nM.

Consider `CC1CC(N)CN(c2ccncc2NC(=O)c2csc(C3CCCCC3)n2)C1` (centres unmarked) [Example 20, N-(4-(3-amino-5-methylpiperidin-1-yl)pyridin-3-yl)-2-cyclohexylthiazole-4-carboxamide], for which the results for the IC50 against Pim2 kinase, against Pim1 kinase and on Pim3 kinase were 18 nM, 12 nM and 16 nM, respectively.

For the compound `NC1CC(C(F)(F)F)CN(c2ccncc2NC(=O)c2csc(C3CCCCC3)n2)C1` (centres unmarked) [Example 21, N-(4-(3-amino-5-(trifluoromethyl)piperidin-1-yl)pyridin-3-yl)-2-cyclohexylthiazole-4-carboxamide], the IC50 on Pim2 kinase was determined as 21 nM; against Pim1 kinase, 11 nM; against Pim3 kinase, 20 nM.

As for `CO[C@H]1C[C@H](N)CN(c2ccncc2NC(=O)c2csc(-c3c(F)cccc3F)n2)C1` [Example 22, N-(4-((3S,5S)-3-amino-5-methoxypiperidin-1-yl)pyridin-3-yl)-2-(2,6-difluorophenyl)thiazole-4-carboxamide], the results for the IC50 on Pim2 kinase, on Pim1 kinase and against Pim3 kinase were 378 nM, 129 nM and 60 nM, respectively.

For the compound `N[C@@H]1CN(c2ccncc2NC(=O)c2csc(-c3c(F)cccc3F)n2)CC(F)(F)C1` [Example 24, (S)-N-(4-(5-amino-3,3-difluoropiperidin-1-yl)pyridin-3-yl)-2-(2,6-difluoropheenyl)thiazole-4-carboxamide], the IC50 stood at 38 nM on Pim2 kinase, 2 nM against Pim1 kinase and 4 nM at Pim3 kinase.

For `CC[C@@H]1C[C@H](N)CN(c2ccncc2NC(=O)c2csc(-c3c(F)cccc3F)n2)C1` [Example 25, N-(4-((3S,5R)-3-amino-5-ethylpiperidin-1-yl)pyridin-3-yl)-2-(2,6-difluorophenyl)thiazole-4-carboxamide], the IC50 was determined as 3 nM against Pim2 kinase, 1 nM against Pim1 kinase and 3 nM against Pim3 kinase.

On to `N[C@@H]1C[C@@H](C(F)(F)F)CN(c2ccncc2NC(=O)c2csc(-c3c(F)cccc3F)n2)C1` [Example 26, N-(4-((3R,5R)-3-amino-5-(trifluoromethyl)piperidin-1-yl)pyridin-3-yl)-2-(2,6-difluorophenyl)thiazole-4-carboxamide], for which the IC50 at Pim2 kinase was 72 nM; at Pim1 kinase it was 6 nM; at Pim3 kinase it was 24 nM.

These data come from patent US8829193B2, “PIM kinase inhibitors and methods of their use” (Novartis AG, priority 2008, dated 2014).
